PMC8686763, “Pre-Steady-State Kinetics of the SARS-CoV-2 Main Protease as a Powerful Tool for Antiviral Drug Discovery” (Frontiers in Pharmacology, 2021)

How the values were obtained:
C145A M^pro [1] = target: T1, C145A M^pro (Severe acute respiratory syndrome coronavirus 2, UniProt P0DTD1, C3408A); assay type: binding, SARS-CoV-2
C145A M^pro [2] = target: T1, C145A M^pro; assay type: binding, SARS-CoV-2; remark: listed apart in the source

SMILES: COc1cccc2[nH]c(C(=O)N[C@@H](CC(C)C)C(=O)N[C@@H](C[C@@H]3CCNC3=O)C(=O)CO)cc12 [PF-00835231]
- change in Tm (C145A M^pro [1]): ~2.2 °C
- K 1 (= k 1/k −1) (C145A M^pro [2]): 0.30 ± 0.02 M⁻¹
- K 2 (= k 2/k −2) (C145A M^pro [2]): 0.35 ± 0.09
- formation of the initial complex (k 1) faster for C145A M^pro than WT (C145A M^pro [2]): approximately 20 fold
- k 1 (C145A M^pro [2]): (6.6 ± 0.2)×10^6 M^−1×s^−1
- k 2 (C145A M^pro [2]): 1.0 ± 0.2 s⁻¹
- k -1 (C145A M^pro [2]): 22 ± 0.2 s⁻¹
- k -2 (C145A M^pro [2]): 2.8 ± 0.2 s⁻¹
